From article PMC13267291, “In vivo functional profiling and structural characterization of the human GLP1R A316T variant” (Science Advances, 2026)

Assays:
[1] = system: hGLP1R^A316T/A316T versus hGLP1R^+/+ mice; experiment: IPGTT acutely and 6 hours after GLP-1RA, chow-fed homozygous mice; assay type: in vivo, mouse; details: chow diet; for Agonist-specific glycemic response (ΔAUC), 6-hour time point, A316T/A316T versus +/+: IPGTT 6 hours postadministration, n = 9; for Agonist-specific glycemic response (ΔAUC), 6-hour time point, A316T/A316T versus +/+ / Agonist-specific glycemic response (ΔAUC, agonist- minus vehicle-treated AUC), acute, A316T/A316T versus +/+: Fig. 1J,K; for Agonist-specific glycemic response (ΔAUC, agonist- minus vehicle-treated AUC), acute, A316T/A316T versus +/+: acute IPGTT, n = 9 per genotype
Method: To examine acute and prolonged glycemic responses to GLP-1RAs, animals were fasted for 2 hours, starting at 8 a.m. on the morning of the experiments, before IPGTTs. GLP-1RAs were then coadministered at the indicated concentrations with 20% (w/v) D-glucose via intraperitoneal injection at weight-adjusted volumes. Baseline glucose readings were taken via tail venipuncture, and subsequent readings were taken at various time points after glucose ± GLP-1RA administration as for the OGTTs (0-hour acute IPGTTs). For GLP-1RAs with shorter half-lives (exendin-4 and exendin-F1), IPGTTs were repeated 6 hours after the start of the initial IPGTT, with continued fasting. For the extended half-life GLP-1RA semaglutide, IPGTTs were performed 24 and 72 hours after GLP-1RA administration, with access to food restored at the end of each IPGTT. The in vivo IPGTT studies were performed with a crossover design, with each mouse receiving vehicle and each GLP-1RA treatment with washout periods of at least 1 week between the different GLP-1RA treatments.

[2] = system: human GLP-1R A316T versus WT; experiment: Real-time cAMP imaging (cADDis) in mouse islets; assay type: cell-based; details: chow-fed mouse islets; 100 nM; 6 mM glucose; AUC; n = 4; not significant; Fig. 5D-F
Method: To measure cAMP, hGLP1R^A316T/A316T versus ^+/+ control mouse islets, or INS-1 832/3 SNAP/FLAG-hGLP1R^WT versus ^A316T cells cultured on glass-bottom MatTek dishes, were transduced with cADDis (Green Gs cADDis cAMP Kit, Montana Molecular), a baculovirus genetically encoding a fluorescent cAMP in situ biosensor, following the manufacturer’s instructions. Transduced islets were subsequently encased into Matrigel on glass-bottom MatTek dishes 24 hours after transduction, and both islets and cells were imaged at λex = 488 nm in a Nikon Eclipse Ti spinning disk confocal microscope and 20× objective with an ORCA-Flash 4.0 camera (Hamamatsu) for time-lapse recordings with image acquisitions every 6 s in KRBH buffer containing 0.1% (w/v) BSA and 6 mM glucose for 2 min to record the baseline, with 100 nM GLP-1RA subsequently added by manual pipetting, and islets imaged for a further 5 min before addition of 100 μM IBMX + 10 μM forskolin for the final 2 min of the acquisition. Raw green fluorescence intensity traces were extracted from whole islet regions of interest (ROIs) using Fiji, and mean intensities were calculated for each ROI and time point. Responses were plotted relative to average fluorescence intensity per islet during the baseline period before GLP-1RA addition.

[3] = system: hGLP1R^A316T/A316T versus hGLP1R^+/+ mice; experiment: IPGTT after GLP-1RA, HFHS-fed homozygous mice; assay type: in vivo, mouse; details: HFHS diet; 2 nmol/kg ip; acute and 6 hours; n = 9; Fig. 2G-J
Method: All animal procedures were approved by the British Home Office under the UK animals (Scientific Procedures) Act 1986 (Project License number PP7151519 to A. Martinez-Sanchez, Imperial College London, UK) and from the local ethical committee (Animal Welfare and Ethics Review Board) at the Central Biological Services unit of Imperial College London. Animals were housed in groups of up to four adult mice in individually ventilated cages under controlled conditions at 21° to 23°C with 12-hour:12-hour light-to-dark cycles (lights on at 07:00). Ad libitum access to water and feed was provided unless otherwise stated. Lean mice were fed a standard chow diet [RM1 (E); Special Diet Services]. For HFHS diet studies, animals were put on a 58 kcal % fat and sucrose diet (D12331, Research Diets Inc.) ad libitum for 10 to 14 weeks before experiments.
To examine acute and prolonged glycemic responses to GLP-1RAs, animals were fasted for 2 hours, starting at 8 a.m. on the morning of the experiments, before IPGTTs. GLP-1RAs were then coadministered at the indicated concentrations with 20% (w/v) D-glucose via intraperitoneal injection at weight-adjusted volumes. Baseline glucose readings were taken via tail venipuncture, and subsequent readings were taken at various time points after glucose ± GLP-1RA administration as for the OGTTs (0-hour acute IPGTTs). […]

[4] = system: human GLP-1R A316T versus WT; experiment: Insulin secretion assay in mouse islets; assay type: cell-based; details: chow-fed mouse islets; 100 nM; 16 hours; n = 4; Fig. 5H
Method: Purified mouse islets used for insulin secretion assays were treated in 24-well nonadherent plates. Eight islets were used per replicate with three technical replicates per condition. For acute studies, islets were preincubated for 1 hour in KRBH buffer containing 0.1% (w/v) bovine serum albumin (BSA) (10775835001, Roche) and 3 mM glucose before incubation with 11 mM glucose ± 100 nM GLP-1RAs or the GLP-1R antagonist exendin-9 in KRBH buffer in a shaking 37°C water bath (80 rpm) for 1 hour. For overnight studies, preincubation was carried out in RPMI 1640 medium containing FBS, P/S, and 3 mM glucose, followed by treatment with medium supplemented with 11 mM glucose ± GLP-1RAs for 16 hours. Supernatants containing secreted insulin were collected, centrifuged at 1000 rpm for 1 min, and transferred to fresh tubes. For total insulin content, islets were lysed using acidic ethanol (75% ethanol, 1.5 mM HCl). Lysates were sonicated 3× 10 s each in a water bath and centrifuged at 10,000g for 10 min, and supernatants were collected. For human islets, the same experiment was performed with islets previously transduced with pAV-SNAP/FLAG-hGLP1R^WT or ^A316T adenoviruses (generated by VectorBuilder) at a multiplicity of infection of 1, 24 hours before the start of experiments. Insulin secretion assays with the human EndoC-βH3 cell line were performed following 3 weeks of treatment with 4-hydroxytamoxifen as above, followed by transduction with pAV-SNAP/FLAG-hGLP1R^WT or ^A316T adenoviruses, with insulin secretion assessed as previously described ([54]), with the following modifications: After preincubation with 0.5 mM glucose KRBH buffer, cells were stimulated with 15 mM glucose ± exendin-4 for 60 min. Total and secreted insulin samples from islets and cells were stored at −20°C until quantification using an Insulin Ultra-Sensitive HTRF kit (#62IN2PEG, Revvity) in a PHERAstar plate reader (BMG Labtech), according to the manufacturer’s instructions.

Substance | Agonist-specific glycemic response (ΔAUC), 6-hour time point, A316T/A316T versus +/+ ([1]; 2 nmol/kg ip) | Agonist-specific glycemic response (ΔAUC, agonist- minus vehicle-treated AUC), acute, A316T/A316T versus +/+ ([1]; 2 nmol/kg ip) | IPGTT glucose responses (AUC), A316T/A316T versus +/+ ([1]; 2 nmol/kg ip, acutely and 6 hours postagonist, Fig. 1F-I) | Desensitization at the 6-hour IPGTT versus exendin-4 ([1]; both mouse genotypes) | cAMP response to agonist, A316T/A316T versus +/+ islets [2] | IPGTT glucose responses, A316T/A316T versus +/+ [3] | Agonist-mediated increase in glucose-stimulated insulin secretion (fold over 11 mM glucose) following overnight exposure, A316T/A316T versus +/+ islets [4]
exendin-F1 | absent | similarly reduced | without reaching statistical significance | reduced desensitization | near-significant increase in cAMP | slightly more pronounced desensitization | no significantly detrimental effect
exendin-4 | paradoxical increase in blood glucose levels compared to vehicle | significantly reduced |  |  | trend for reduced cAMP | slightly more pronounced desensitization | complete loss of the potentiating effect
